≈ marks a conversion by molar mass, not a printed value.
Columns and labels:
Cryptococcus neoformans = experiment: Antimicrobial activity against Cryptococcus neoformans IFM62681 incubated for 72 hrs; type: functional, organism-based; conditions: IFM62681, 72 h
Micrococcus luteus = experiment: Antimicrobial activity against Micrococcus luteus IFM2066 incubated for 72 hrs; type: functional; conditions: IFM2066, 72 h
Candida albicans = experiment: Antimicrobial activity against Candida albicans IFM62680 incubated for 72 hrs; type: functional, organism-based; conditions: IFM62680, 72 h
[1] = tested on: Trichophyton mentagrophytes; experiment: Antimicrobial activity against Trichophyton mentagrophytes IFM62679 incubated for 72 hrs; type: functional, organism-based; conditions: IFM62679, 72 h
Escherichia coli = experiment: Antimicrobial activity against Escherichia coli ATCC 25922 incubated for 72 hrs; type: functional; conditions: ATCC 25922, 72 h
Aspergillus niger = experiment: Antimicrobial activity against Aspergillus niger IFM62678 incubated for 72 hrs; type: functional, organism-based; conditions: IFM62678, 72 h
Staphylococcus aureus = experiment: Antimicrobial activity against Staphylococcus aureus 209P incubated for 72 hrs; type: functional
Bacillus subtilis = experiment: Antimicrobial activity against Bacillus subtilis PC1219 incubated for 72 hrs; type: functional; conditions: PC1219, 72 h

- IC50 (Cryptococcus neoformans): 2 µg/mL (≈ 2.8 µM)
- MIC (Micrococcus luteus): 8 µg/mL (≈ 11.2 µM)
- IC50 (Candida albicans): 16 µg/mL (≈ 22.4 µM)
- IC50 [1]: 8 µg/mL (≈ 11.2 µM)
- MIC (Escherichia coli): 32 µg/mL (≈ 44.9 µM)
- IC50 (Aspergillus niger): 16 µg/mL (≈ 22.4 µM)
- MIC (Staphylococcus aureus): 8 µg/mL (≈ 11.2 µM)
- MIC (Bacillus subtilis): 8 µg/mL (≈ 11.2 µM)
Compound: NCCc1c(C(C2=C[C@@]3(O)CC/C=C\CCCCN4CC[C@@H]2[C@]2(C[C@@H]5/C=C\CCCCN5[C@H]23)C4)c2[nH]c3ccccc3c2CCN)[nH]c2ccccc12

Reference: ChEMBL document CHEMBL4184130, “Zamamidine D, a Manzamine Alkaloid from an Okinawan Amphimedon sp. Marine Sponge” (J Nat Prod, 2017)
